Drawing on ChEMBL document CHEMBL1145304 (Bioorg Med Chem Lett, 2006), this text covers IC50 for 13 compounds.

Chain of Sodium-dependent dopamine transporter (Q01959 whole entry): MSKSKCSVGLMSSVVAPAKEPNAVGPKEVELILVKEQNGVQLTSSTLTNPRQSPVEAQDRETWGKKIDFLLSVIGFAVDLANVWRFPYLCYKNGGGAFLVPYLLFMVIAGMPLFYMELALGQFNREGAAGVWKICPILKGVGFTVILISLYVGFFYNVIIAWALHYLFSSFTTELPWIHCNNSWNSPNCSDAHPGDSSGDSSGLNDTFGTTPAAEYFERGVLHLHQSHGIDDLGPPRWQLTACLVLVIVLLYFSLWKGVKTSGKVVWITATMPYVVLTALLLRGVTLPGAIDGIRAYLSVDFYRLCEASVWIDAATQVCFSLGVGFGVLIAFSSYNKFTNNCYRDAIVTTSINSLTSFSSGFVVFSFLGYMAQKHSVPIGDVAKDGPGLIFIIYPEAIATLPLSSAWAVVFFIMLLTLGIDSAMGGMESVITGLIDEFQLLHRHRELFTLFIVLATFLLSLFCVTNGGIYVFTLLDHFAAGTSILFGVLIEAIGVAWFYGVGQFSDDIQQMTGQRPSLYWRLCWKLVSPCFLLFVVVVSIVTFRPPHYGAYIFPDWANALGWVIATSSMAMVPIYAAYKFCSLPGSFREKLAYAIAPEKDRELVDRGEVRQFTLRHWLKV
Chain of Sodium-dependent serotonin transporter (P31645 whole entry): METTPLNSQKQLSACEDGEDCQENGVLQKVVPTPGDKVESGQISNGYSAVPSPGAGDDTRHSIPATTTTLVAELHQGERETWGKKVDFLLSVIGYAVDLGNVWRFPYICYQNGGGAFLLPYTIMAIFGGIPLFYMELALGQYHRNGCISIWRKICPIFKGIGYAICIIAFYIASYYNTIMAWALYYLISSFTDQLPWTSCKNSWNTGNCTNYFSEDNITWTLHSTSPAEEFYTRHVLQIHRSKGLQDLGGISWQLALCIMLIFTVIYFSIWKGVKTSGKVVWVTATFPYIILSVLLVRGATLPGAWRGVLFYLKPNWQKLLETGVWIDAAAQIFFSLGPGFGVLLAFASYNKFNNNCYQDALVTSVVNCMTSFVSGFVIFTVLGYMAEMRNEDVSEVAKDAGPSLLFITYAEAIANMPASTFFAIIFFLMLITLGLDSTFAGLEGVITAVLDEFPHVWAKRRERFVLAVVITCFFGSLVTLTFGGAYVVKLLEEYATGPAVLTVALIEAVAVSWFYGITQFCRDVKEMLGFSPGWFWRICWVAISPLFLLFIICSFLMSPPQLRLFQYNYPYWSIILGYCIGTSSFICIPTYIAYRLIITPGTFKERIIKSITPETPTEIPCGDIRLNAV
Chain of Sodium-dependent noradrenaline transporter (P23975 whole entry): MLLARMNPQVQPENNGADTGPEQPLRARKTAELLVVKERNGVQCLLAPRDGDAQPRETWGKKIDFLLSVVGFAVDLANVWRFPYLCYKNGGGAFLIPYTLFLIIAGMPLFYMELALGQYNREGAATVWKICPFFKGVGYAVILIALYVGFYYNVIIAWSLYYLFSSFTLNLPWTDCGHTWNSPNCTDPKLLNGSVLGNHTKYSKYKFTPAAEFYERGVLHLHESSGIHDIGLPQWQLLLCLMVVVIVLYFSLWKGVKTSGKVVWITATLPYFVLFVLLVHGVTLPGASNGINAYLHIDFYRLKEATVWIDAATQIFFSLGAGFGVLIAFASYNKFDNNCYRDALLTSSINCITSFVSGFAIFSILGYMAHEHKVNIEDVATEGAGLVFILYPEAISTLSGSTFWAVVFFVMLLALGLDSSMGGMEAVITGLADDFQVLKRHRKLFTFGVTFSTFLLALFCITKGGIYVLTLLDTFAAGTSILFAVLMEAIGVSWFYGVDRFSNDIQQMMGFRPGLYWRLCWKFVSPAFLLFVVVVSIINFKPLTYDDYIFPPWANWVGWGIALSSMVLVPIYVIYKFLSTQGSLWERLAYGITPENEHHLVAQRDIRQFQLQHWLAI

The first test concerns the target Sodium-dependent serotonin transporter (Homo sapiens, UniProt P31645). In kind it is cell-based, HEK293.
One may read the IC50 as the point on the concentration scale where inhibition reaches its midpoint. The low end stands for greater potency, the high end for weaker potency. As to `c1ccc(CCC(c2ccccc2)N2CCNCC2)cc1` (centres undefined), half-maximal inhibition (IC50) was put at 0.023 µM.
Regarding `CCOc1ccccc1CC(c1nccs1)N1CCNCC1` (centres undefined), the IC50 was 0.039 µM.
Compound `Clc1ccccc1CC(c1ccccc1)N1CCCNCC1` (centres undefined) displayed an IC50 of 0.042 µM.
On the same count and under the same terms, the same measure for `c1ccc(C(Cc2cccc3ccccc23)N2CCNCC2)cc1` (centres undefined): 0.012 µM; for `CCOc1ccccc1CC(c1cccnc1)N1CCNCC1` (centres undefined): 0.046 µM; for `CCOc1ccccc1CC(c1cncs1)N1CCNCC1` (centres undefined): 0.04 µM.
Still for that read-out and setting: next, `CCOc1ccccc1CC(c1ccccc1)N1CCCNCC1` (centres undefined): 0.3 µM.
Still for that read-out and setting: next, `c1ccc(C(Cc2ccncc2)N2CCNCC2)cc1` (centres undefined): 0.038 µM; `c1ccc(C(Cc2ccccn2)N2CCNCC2)cc1` (centres undefined): 0.23 µM.
Take `Clc1ccccc1CC(c1cncs1)N1CCNCC1` (centres undefined): the IC50 stood at 0.012 µM.
Consider `Clc1ccccc1CC(c1cccnc1)N1CCNCC1` (centres undefined), for which half-maximal inhibition (IC50) required 0.014 µM.
On the same count and under the same terms, next, `c1ccc(CCC(Cc2ccccc2)N2CCNCC2)cc1` (centres undefined): 0.023 µM; `c1ccc(C(Cc2ccc3ccccc3c2)N2CCNCC2)cc1` (centres undefined): 0.017 µM.

Another test has as its target Sodium-dependent noradrenaline transporter (Homo sapiens, UniProt P23975).
Description: Inhibition of [3H]NA reuptake at NA transporter in HEK293 cells
Regarding `c1ccc(CCC(c2ccccc2)N2CCNCC2)cc1` (centres undefined), the IC50 is > 0.4 µM.
On the same count and under the same terms, next, `CCOc1ccccc1CC(c1nccs1)N1CCNCC1` (centres undefined): 0.34 µM.
Same read-out and setting: the same measure for `Clc1ccccc1CC(c1ccccc1)N1CCCNCC1` (centres undefined): 0.076 µM.
As to `c1ccc(C(Cc2cccc3ccccc23)N2CCNCC2)cc1` (centres undefined), the concentration for half-maximal inhibition (IC50) was > 0.4 µM.
On the same count and under the same terms, the same measure for `CCOc1ccccc1CC(c1cccnc1)N1CCNCC1` (centres undefined): 0.015 µM; for `CCOc1ccccc1CC(c1cncs1)N1CCNCC1` (centres undefined): 0.021 µM.
Still for that read-out and setting: next, `CCOc1ccccc1CC(c1ccccc1)N1CCCNCC1` (centres undefined): 0.0088 µM; `c1ccc(C(Cc2ccncc2)N2CCNCC2)cc1` (centres undefined): > 0.4 µM.
Still for that read-out and setting: the same measure for `c1ccc(C(Cc2ccccn2)N2CCNCC2)cc1` (centres undefined): > 0.4 µM.
`Clc1ccccc1CC(c1cncs1)N1CCNCC1` (centres undefined) returned an IC50 of 0.12 µM.
For `Clc1ccccc1CC(c1cccnc1)N1CCNCC1` (centres undefined), 0.075 µM corresponded to half-maximal inhibition (IC50).
Still for that read-out and setting: next, `c1ccc(CCC(Cc2ccccc2)N2CCNCC2)cc1` (centres undefined): 0.048 µM; `c1ccc(C(Cc2ccc3ccccc3c2)N2CCNCC2)cc1` (centres undefined): > 0.4 µM.

The next test concerns the target Sodium-dependent dopamine transporter (Homo sapiens, UniProt Q01959).
Description: Inhibition of [3H]DA reuptake at DA transporter in HEK293 cells
On to `CCOc1ccccc1CC(c1cccnc1)N1CCNCC1` (centres undefined), for which the IC50 was > 4 µM.
In the case of `Clc1ccccc1CC(c1cccnc1)N1CCNCC1` (centres undefined), the concentration for half-maximal inhibition (IC50) stood at 9.2 µM.
Still for that read-out and setting: next, `c1ccc(CCC(Cc2ccccc2)N2CCNCC2)cc1` (centres undefined): 0.4 µM.
